Data as given in patent US20260166175A1, “FABRICATION OF CYCLODEXTRIN PARTICLES AND CRYOGELS AND METHODS OF USING AND MAKING THEREOF” (University of South Florida, priority 2022, published 2026).

Tests used:
[1] = tested on: L929 fibroblasts; assay: Cytotoxicity (MTT cell viability) on L929 fibroblasts; type: cell-based; conditions: 1.0 mg/mL, 24 h incubation
Description: For the biocompatibility analysis, L929 fibroblasts were cultured in an air-humidified incubator (5% CO2 atmosphere) in DMEM supplemented with 10% fetal bovine serum (FBS) at up to 70% cell confluency. The cytotoxicity analysis of CD-based materials was performed by MTT assay which determines the metabolic activity of living cells.
The L929 fibroblast cell suspension was adjusted to a density of 5×10^5 cells mL^−1 and gently homogenized. Then, 100 µL of this cell suspension was seeded onto wells on a 96-well plate. The well-plate was incubated at 37° C. under 5% CO2 in an air-humidified incubator for 24 h. After adherence of the fibroblasts, the culture medium was removed from the wells and 100 μL of CD-based particle suspension in culture medium DMEM at different concentrations between 50 and 1000 μg/mL was added to the cells. The plate was incubated at 37° C. under 5% CO2 in an air-humidified incubator for 24 h more. At the end of the incubation, the medium was removed from the wells, the cells were washed with phosphate-buffered saline solution (PBS) two times. After this step, 100 μL of MTT (Tetrazolium dye) at 0.5 mg/mL concentration was added to each well. The plate was incubated at room temperature in the dark for 4 h. Then, MTT solution was removed from the wells and 200 μL of DMSO was placed into the wells to dissolve the blue formazan crystals. Finally, the absorbance values were measured at 590 nm with a plate reader (Thermo Scientific™ Multiskan™). The absorbance value of control group was accepted as 100% viability and the decrease in cell viability % was estimated based on the absorbance values of the wells treated with CD-based materials by the following equation, Cell viability
Where Amaterial is the absorbance value of the cells interacting with CD-based materials and Acontrol is the absorbance value of the untreated cells as control. All assays were carried out in triplicate and the results are given with standard deviations.

[2] = tested on: Human blood; assay: Blood clotting assay; conditions: 1 mg/mL
Description: Hemolysis and blood clotting assays were performed to investigate the blood compatibility of linear α-CD, β-CD, and γ-CD and their particle forms. Human blood was obtained from healthy volunteers and approved by the Clinical Research Ethics Committee of Canakkale Onsekiz Mart University (2011-KAEK-27/2022-2200063689) and placed into tubes containing EDTA. Before the analysis, all solutions were preheated to 37° C.
For the blood clotting assay, 64 μL of 0.2 M CaCl2 aqueous solution was mixed with 810 μL of blood containing EDTA and immediately 270 μL of this blood was covered with 10 mg of linear CD or CD particle. After 10 min, 10 mL of DI water was slowly added into the tubes and centrifuged at 100 g for 1 minute. Then 10 mL of supernatant solution containing non-clotting blood was taken from the tube and diluted with 40 mL of DI water. In the separation tube, 250 μL of the blood containing EDTA was dispersed in 50 mL of DI water as a control. The blood solution was incubated at 37.5° C. in a water bath for 1 h and then, the absorbance value of the supernatant was measured at 542 nm by using UV-Vis spectroscopy. The blood clotting index of the linear CD or CD particles was evaluated from the following equation.
Where Amaterial is the absorbance value of the blood solution interacted with the CD-based materials and Acontol is the absorbance value of the blood solution without the CD-based materials as a control. All assays were carried out in triplicate and the results are given with standard deviations.

[3] = Bisphenol A or curcumin loading into p(CD) particles (adsorption); type: physicochemical; conditions: for absorbed BPA: guest BPA; for absorbed CUR: guest CUR
Description: Then, BPA-loaded CD-based particles were washed with ethanol-water (1:1) mixture one time by centrifugation at 10 000 rpm for 10 min. The BPA loaded CD-based particles were dried by freeze dryer for 48 h. Similarly, curcumin (CUR) was loaded into p(α-CD), p(β-CD), and p(γ-CD) particles by using the same procedure as described above. […] The CUR-loaded p(CD) materials were dried by freeze dryer for 48 h. The absorbance value of the BPA/CUR solutions before and after the loading processes were measured by using UV-Vis spectroscopy (SP-UV300SRB, Spectrum, China) at 275 nm and 425 nm for BPA and CUR, respectively against the previously constructed corresponding calibration curves for BPA and CUR prepared in ethanol-water mixtures. The ethanol-water solution was prepared at 1:7 and 3:2 volume ratios for BPA and CUR, respectively.

OCC1OC2OC3C(CO)OC(OC4C(CO)OC(OC5C(CO)OC(OC6C(CO)OC(OC7C(CO)OC(OC1C(O)C2O)C(O)C7O)C(O)C6O)C(O)C5O)C(O)C4O)C(O)C3O (stereo not drawn) [α-CD, α-cyclodextrin]
cell viability [1]: 90±7%
blood clotting index [2]: 93.6±2.2%
absorbed BPA [3]: 0.158 mmol/mmol
absorbed CUR [3]: 0.482 mmol/mmol

OCC1OC2OC3C(CO)OC(OC4C(CO)OC(OC5C(CO)OC(OC6C(CO)OC(OC7C(CO)OC(OC8C(CO)OC(OC1C(O)C2O)C(O)C8O)C(O)C7O)C(O)C6O)C(O)C5O)C(O)C4O)C(O)C3O (stereo not drawn) [β-CD, β-cyclodextrin]
cell viability [1]: 89±14%
blood clotting index [2]: 92.3±2.3%
absorbed BPA [3]: 0.279 mmol/mmol
absorbed CUR [3]: 0.398 mmol/mmol

OCC1OC2OC3C(CO)OC(OC4C(CO)OC(OC5C(CO)OC(OC6C(CO)OC(OC7C(CO)OC(OC8C(CO)OC(OC9C(CO)OC(OC1C(O)C2O)C(O)C9O)C(O)C8O)C(O)C7O)C(O)C6O)C(O)C5O)C(O)C4O)C(O)C3O (stereo not drawn) [γ-CD, γ-cyclodextrin]
cell viability [1]: 95±14%
blood clotting index [2]: 98.4±0.7%
absorbed BPA [3]: 0.222 mmol/mmol
absorbed CUR [3]: 0.416 mmol/mmol
